Assay results published in ChEMBL document CHEMBL3046233, “Synthesis and anticonvulsant activity of 4-(2-phenoxyphenyl)semicarbazones” (Med Chem Res, 2009).

Experiments:
[1] = system: Rattus norvegicus; assay: Anticonvulsant activity in Rattus norvegicus Wistar (rat) pentylenetetrazole-induced kindling model assessed as seizure time at 30 mg/kg, ip administered 30 min before pentylenetetrazole challenge; assay type: functional; settings: route intraperitoneal
[2] = system: Rattus norvegicus; assay: Anticonvulsant activity in Rattus norvegicus Wistar (rat) pentylenetetrazole-induced kindling model assessed as seizure latency time at 30 mg/kg, ip administered 30 min before pentylenetetrazole challenge; assay type: functional; settings: route intraperitoneal
[3] = system: Rattus norvegicus; assay: Neurotoxicity in Rattus norvegicus Wistar (rat) at 300 mg/kg, ip by rotarod test; assay type: toxicity, organism-based; set-up: dose 300 mg/kg, route intraperitoneal; settings: in vivo
[4] = system: Rattus norvegicus; assay: Anticonvulsant activity in Rattus norvegicus Wistar (rat) pentylenetetrazole-induced kindling model assessed as seizure latency time at 200 mg/kg, ip administered 30 min before pentylenetetrazole challenge; assay type: functional; settings: route intraperitoneal
[5] = system: Rattus norvegicus; assay: Anticonvulsant activity in Rattus norvegicus Wistar (rat) pentylenetetrazole-induced kindling model assessed as seizure latency time at 100 mg/kg, ip administered 30 min before pentylenetetrazole challenge; assay type: functional; settings: route intraperitoneal
[6] = system: Rattus norvegicus; assay: Anticonvulsant activity in Rattus norvegicus Wistar (rat) pentylenetetrazole-induced kindling model assessed as seizure time at 100 mg/kg, ip administered 30 min before pentylenetetrazole challenge; assay type: functional; settings: route intraperitoneal
[7] = system: Rattus norvegicus; assay: Anticonvulsant activity in Rattus norvegicus Wistar (rat) pentylenetetrazole-induced kindling model assessed as seizure time at 200 mg/kg, ip administered 30 min before pentylenetetrazole challenge; assay type: functional; settings: route intraperitoneal

`C/C(=N\NC(=O)Nc1ccccc1Oc1ccccc1)c1ccccc1[N+](=O)[O-]` gave a Time [1] of 40.6 s and a Time [2] of 639.2 s.
With `C/C(=N\NC(=O)Nc1ccccc1Oc1ccccc1)c1cccc([N+](=O)[O-])c1` the Time [1] was 32.2 s and the Time [2] was 832.2 s.
Compound `C/C(=N\NC(=O)Nc1ccccc1Oc1ccccc1)c1ccc([N+](=O)[O-])cc1` has a Time [1] of 64.25 s and a Time [2] of 404.25 s.
For `C/C(=N\NC(=O)Nc1ccccc1Oc1ccccc1)c1ccc(C)cc1`, the Time [1] was 71.42 s and the Time [2] was 405.42 s.
Compound `C/C(=N\NC(=O)Nc1ccccc1Oc1ccccc1)c1ccccc1O` has a Time [1] of 33.2 s and a Time [2] of 532.4 s.
`CSc1ccc(/C(C)=N/NC(=O)Nc2ccccc2Oc2ccccc2)cc1` was tested, and the Time [1] was 75 s and the Time [2] was 189.4 s.
Compound `COc1ccc(OC)c(/C(C)=N/NC(=O)Nc2ccccc2Oc2ccccc2)c1` has a Time [1] of 69.16 s and a Time [2] of 110 s.
`O=C(N/N=C/c1ccccc1)Nc1ccccc1Oc1ccccc1` was tested, and the Time [1] was 48.5 s and the Time [2] was 508.5 s.
For `O=C(N/N=C/c1cccc(Br)c1)Nc1ccccc1Oc1ccccc1`, the Time [1] was 81 s and the Time [2] was 229.33 s.
`O=C(N/N=C/c1ccccc1[N+](=O)[O-])Nc1ccccc1Oc1ccccc1` showed a Time [1] of 36.5 s and a Time [2] of 858.66 s.
Compound `O=C(N/N=C/c1cccc([N+](=O)[O-])c1)Nc1ccccc1Oc1ccccc1` has a Time [1] of 40.2 s and a Time [2] of 636.2 s.
In the case of `O=C(N/N=C/c1ccc([N+](=O)[O-])cc1)Nc1ccccc1Oc1ccccc1`, the Time [1] is reported as 79.75 s and the Time [2] is reported as 293.75 s.
In the case of `Cc1ccc(/C=N/NC(=O)Nc2ccccc2Oc2ccccc2)cc1`, the Time [1] is reported as 59.28 s and the Time [2] is reported as 418.71 s.
`O=C(N/N=C/c1ccccn1)Nc1ccccc1Oc1ccccc1` was tested, and the Time [1] was 23 s, the Time [2] was 1161.6 s and the Activity [3] was “Non-toxic”.
`O=C(N/N=C/c1cccnc1)Nc1ccccc1Oc1ccccc1` was tested, and the Time [1] was 40.4 s and the Time [2] was 903 s.
For `O=C(N/N=C/c1ccncc1)Nc1ccccc1Oc1ccccc1`, the Time [1] was 31.16 s, the Time [2] was 969.83 s and the Activity [3] was “Non-toxic”.
`CSc1ccc(/C=N/NC(=O)Nc2ccccc2Oc2ccccc2)cc1` showed a Time [1] of 66.5 s and a Time [2] of 244.75 s.
With `COc1ccc(OC)c(/C=N/NC(=O)Nc2ccccc2Oc2ccccc2)c1` the Time [1] was 54.83 s and the Time [2] was 150.16 s.
`C/C(=N\NC(=O)Nc1ccccc1Oc1ccccc1)c1ccccc1` gave a Time [1] of 48.75 s and a Time [2] of 293.75 s.
For `C/C(=N\NC(=O)Nc1ccccc1Oc1ccccc1)c1cccc(Br)c1`, the Time [1] was 85.33 s and the Time [2] was 209.66 s.
`CCCC(CCC)C(=O)[O-].[Na+]` [VALPROATE SODIUM] gave a Time [4] of 900.62 s, a Time [5] of 817.42 s and a Time [6] of 40 s. The Time [7] was 26.5 s.
